The term IC50 denotes the point on the concentration scale where inhibition reaches its midpoint. In general, bioavailability refers to dose-corrected exposure relative to a reference, in per cent. Higher therefore signals good availability. In general, half-life refers to the time needed for the level to fall by half in the phase considered. A low value points to rapid decline. By clearance is commonly meant the rate of elimination divided by the concentration. Usually Papp A→B stands for the apparent permeability from the apical to the basolateral side of a cell layer. As usually defined, the efflux ratio is a quotient of directional permeabilities that is used to spot active efflux.

Results on 33 compounds are retold here after ChEMBL document CHEMBL6182942, “Discovery of a Selective, Novel TGF-βR1 Inhibitor GFH018 for the Treatment of Solid Tumors” (J Med Chem, 2025).

Data set [1] addresses T1, TGF-beta receptor type-1 (Homo sapiens, UniProt P36897).
T1 sequence (P36897 whole entry): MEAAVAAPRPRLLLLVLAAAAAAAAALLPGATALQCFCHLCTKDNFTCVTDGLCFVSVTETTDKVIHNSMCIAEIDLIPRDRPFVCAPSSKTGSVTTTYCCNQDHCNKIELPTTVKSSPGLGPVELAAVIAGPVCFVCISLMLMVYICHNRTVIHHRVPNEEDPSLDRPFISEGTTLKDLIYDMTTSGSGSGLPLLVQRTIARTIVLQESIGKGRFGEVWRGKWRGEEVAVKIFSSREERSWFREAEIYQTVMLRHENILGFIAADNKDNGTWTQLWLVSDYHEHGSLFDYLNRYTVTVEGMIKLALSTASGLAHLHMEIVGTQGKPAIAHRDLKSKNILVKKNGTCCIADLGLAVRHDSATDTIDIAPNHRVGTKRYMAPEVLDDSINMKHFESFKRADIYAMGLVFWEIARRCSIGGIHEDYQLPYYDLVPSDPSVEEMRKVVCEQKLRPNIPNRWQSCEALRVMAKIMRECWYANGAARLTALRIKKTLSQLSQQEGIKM
Kind of data set: Inhibition of TGFbetaR1 (unknown origin) in presence of ATP.

Data set [2] deals with Mitogen-activated protein kinase 14 (Homo sapiens, UniProt Q16539). Kind of data set: Inhibition of p38alpha (unknown origin) measured after 40 mins in presence of [gamma-33P]ATP by microbeta liquid scintillation counting analysis. Type of data set: toxicity.
The species entered for data set [3] is Homo sapiens. Kind of data set: Selectivity ratio of IC50 for p38alpha (unknown origin) to IC50 for TGFbetaR1 (unknown origin).
The test system of data set [4] is NIH3T3. The experiment in a line: Antiproliferative activity against mouse NIH/3T3 cells by celltitter-glo assay. Type of data set: functional, cell-based.
A short description of data set [5]: Volume of distribution at steady state in CD-1 mouse at 1 mg/kg, iv by LC-MS/MS analysis. Type of data set: ADME, organism-based. Conditions: in vivo, read-out: Vdss.
Data set [6] can be described thus: Oral bioavailability in CD-1 mouse at 5 mg/kg via gavage by LC-MS/MS analysis. Conditions: in vivo. Type of data set: ADME, organism-based.
Data set [7] in a line: Metabolic stability in mouse liver microsomes assessed as parent compound remaining at 1 uM preincubated for 5 mins followed by NADPH addition by LC-MS/MS analysis. Type of data set: ADME, Microsome. To be noted: read-out: Stability.
A short description of data set [8]: Half life in CD-1 mouse at 5 mg/kg, po via gavage by LC-MS/MS analysis. Type of data set: ADME, organism-based. Conditions: in vivo.
Data set [9] in a line: Half life in CD-1 mouse at 1 mg/kg, iv by LC-MS/MS analysis. Type of data set: ADME, organism-based. Conditions: in vivo.
A short description of data set [10]: Clearance in CD-1 mouse at 1 mg/kg, iv by LC-MS/MS analysis. Type of data set: ADME, organism-based. To be noted: in vivo.
Data set [11] is described as follows: AUC (0 to last) in CD-1 mouse at 5 mg/kg, po via gavage by LC-MS/MS analysis. Type of data set: ADME, organism-based. Conditions: in vivo.
Data set [12] can be described thus: Metabolic stability in human liver microsomes assessed as parent compound remaining at 1 uM preincubated for 5 mins followed by NADPH addition by LC-MS/MS analysis. Type of data set: ADME, Microsome. Conditions: read-out: Stability. For orientation: Liver microsomes are a subcellular fraction often used to study metabolism.
Data set [13] in a line: Cmax in CD-1 mouse at 5 mg/kg, po via gavage by LC-MS/MS analysis. Type of data set: ADME, organism-based. To be noted: in vivo.
Data set [14] is described as follows: Apparent permeability across apical to basolateral side in dog MDCK-MDR1 cells at 2 uM measured over 150 mins by LC-MS/MS analysis. Type of data set: ADME, cell-based, Canis lupus familiaris.
Data set [15] relates to MDR1. The experiment in a line: Efflux ratio of apparent permeability in dog MDCK-MDR1 cells at 2 uM measured over 150 mins by LC-MS/MS analysis. Type of data set: ADME, cell-based, Canis lupus familiaris.

Sequence of Mitogen-activated protein kinase 14 (Q16539 whole entry): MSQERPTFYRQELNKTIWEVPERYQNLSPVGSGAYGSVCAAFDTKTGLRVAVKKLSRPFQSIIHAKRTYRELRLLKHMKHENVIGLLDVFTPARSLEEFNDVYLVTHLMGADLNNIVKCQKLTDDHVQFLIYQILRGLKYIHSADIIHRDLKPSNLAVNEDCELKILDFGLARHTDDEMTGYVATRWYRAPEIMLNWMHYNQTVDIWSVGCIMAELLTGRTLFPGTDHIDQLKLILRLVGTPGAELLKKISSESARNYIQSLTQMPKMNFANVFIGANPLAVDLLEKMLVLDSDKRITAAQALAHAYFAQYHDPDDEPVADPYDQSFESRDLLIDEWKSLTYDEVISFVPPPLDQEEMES

With `Cc1cccc(-c2nn3c(c2-c2ccc4ncsc4c2/C=C/C(N)=O)CCC3)n1`, the IC50 in [1] was determined as 207 nM; in data set [2], 476 nM. For the same compound, the Ratio IC50 in data set [3] is 2.3.

With `Cc1cccc(-c2nn3c(c2-c2ccc4ncnn4c2/C=C/C(C)(C)O)CCC3)n1`, the half-maximal inhibitory concentration (IC50) is 1620 nM in data set [4], 83 nM in data set [1] and more than 10000 nM in data set [2]. The Vd in data set [5] came to 0.849 L/kg. Besides, the bioavailability in [6] was determined as 5.48%. Moreover, the remaining at 1 µM in [7] is 7.8%; in data set [12], 54.8%. Besides, the results for the half-life in data set [8] and in data set [9] were 50.5 min and 7.74 min, respectively. In data set [10], this compound yielded a clearance of 105 mL/min/kg. Besides, in [11], the AUClast is 104 nM.hr/ml. The same compound registered a Cmax in data set [13] of 170 nM/ml. Further, the Papp A→B at 2.5 h, 2 µM in [14] is 8.48 ×10⁻⁶ cm/s. The efflux ratio at 2.5 h, 2 µM in data set [15] was determined as 6.12.

As for `Cc1cccc(-c2nn3c(c2-c2ccnc(Nc4ccc(C(N)=O)cc4)c2)CCC3)n1`, the IC50 was found to be 90.9 nM in data set [1] and 26 nM in data set [2]. Moreover, the Ratio IC50 in [3] turned out to be 0.3.

Turning to `Cc1cccc(-c2nn(Cc3cccc(C(F)F)c3)cc2-c2ccc3ncnn3c2/C=C/C(N)=O)n1`, the IC50 turned out to be 900 nM in data set [4], 164 nM in [1] and 2050 nM in [2]. Moreover, the remaining at 1 µM in data set [7] is 0%; in [12], 9.5%.

Take `Cc1cccc(-c2nn3c(c2-c2ccnc(-c4cccc(C(N)=O)c4)c2)CCC3)n1`: in [1], the IC50 came out at 3460 nM.

For the compound `CCOC(=O)/C=C/c1c(-c2c(-c3cccc(C)n3)nn3c2CCC3)ccc2ncnn12`, the IC50 in data set [1] came out at 324 nM; in data set [2], 5910 nM. Further, the Papp A→B at 2.5 h, 2 µM in [14] was determined as 19.4 ×10⁻⁶ cm/s.

Turning to `Cc1cccc(-c2nn(Cc3cccc(C#N)c3)cc2-c2ccc3ncnn3c2C=CC(N)=O)n1`, the concentration for half-maximal inhibition (IC50) in data set [4] is 1660 nM; in data set [1], 223 nM; in data set [2], more than 3330 nM. For the same compound, the remaining at 1 µM came to 9.8% in [7] and 56.2% in data set [12].

Consider `Cc1cccc(-c2nn3c(c2-c2ccc4ncnn4c2CNc2cc[nH]n2)CCC3)n1`, for which the IC50 in [1] is 365 nM; in data set [2] it was more than 10000 nM. In data set [3], the Ratio IC50 is more than 27.4.

Take `CCc1cccc(-c2nn3c(c2-c2ccc4ncnn4c2/C=C/C(N)=O)CCC3)n1`: the IC50 was 420 nM in [1] and 5380 nM in [2]. Further, the Ratio IC50 in data set [3] amounted to 12.8.

For the compound `Cc1cccc(-c2nn3c(c2-c2ccnc(Nc4ccc(S(N)(=O)=O)cc4)c2)CCC3)n1`, the IC50 is 82.6 nM in data set [1] and 15 nM in [2]. In data set [3], the Ratio IC50 was 0.2.

As for `Cc1cccc(-c2nn3c(c2-c2ccc4ncnn4c2/C=C/C(N)=O)CCCC3)n1`, the IC50 in [1] stood at 136 nM; in data set [2], 1580 nM. Moreover, the Ratio IC50 in data set [3] is 11.6.

Take `Cc1cccc(-c2nn3c(c2-c2ccnc4c2CN(C(N)=O)CC4)CCC3)n1`: the IC50 in [1] was more than 5000 nM.

With `Cc1cccc(-c2nn3c(c2-c2cn(C)c(=O)c4ccc(C(N)=O)cc24)CCC3)n1`, in data set [1], the IC50 was more than 5000 nM.

Regarding `Cc1cccc(-c2nn3c(c2-c2ccc4ncnn4c2/C=C/C(=O)NO)CCC3)n1`, the remaining at 1 µM turned out to be 41.6% in [7] and 42.5% in data set [12]. Moreover, the IC50 was 41.2 nM in [1] and more than 3330 nM in [2]. In data set [3], the Ratio IC50 is more than 80. The Papp A→B at 2.5 h, 2 µM in [14] was 0.15 ×10⁻⁶ cm/s. The efflux ratio at 2.5 h, 2 µM in [15] turned out to be 43.4.

`Cc1cccc(-c2nn3c(c2-c2ccnc(NC4CCN(C(N)=O)CC4)c2)CCC3)n1`: in data set [1], the half-maximal inhibitory concentration (IC50) was more than 5000 nM.

`Cc1cccc(-c2nn(C(C)C)cc2-c2ccc3ncnn3c2/C=C/C(N)=O)n1`: in data set [1], the IC50 came out at 423 nM.

For the compound `Cc1cccc(-c2nn3c(c2-c2ccc4ncnn4c2CN2CC(O)C2)CCC3)n1`, the IC50 in data set [1] was more than 5000 nM.

`Cc1cccc(-c2nn3c(c2-c2ccc4ncnn4c2CN2CCNC(=O)C2)CCC3)n1`: the IC50 in data set [1] was more than 5000 nM.

With `Cc1cccc(-c2nn3c(c2-c2ccc(F)c4c2CN(C(N)=O)CC4)CCC3)n1`, in data set [1], the IC50 was more than 5000 nM.

With `Cc1cccc(-c2nn3c(c2-c2ccc4ncnn4c2C(N)=O)CCC3)n1`, in [1], the IC50 was found to be 4290 nM.

Take `Cc1cccc(-c2nn3c(c2-c2ccc4ncccc4c2/C=C/C(N)=O)CCC3)n1`: the IC50 in data set [1] stood at 971 nM.

For the compound `Cc1cccc(-c2nn3c(c2-c2ccc4ncnn4c2/C=C/C(=O)NCCO)CCC3)n1`, the IC50 in data set [1] was found to be 281 nM; in data set [2], 6900 nM. Moreover, in [3], the Ratio IC50 turned out to be 24.6.

Take `Cc1cccc(-c2nn3c(c2-c2ccc4ncnn4c2/C=C/C(=O)O)CCC3)n1`: the IC50 in data set [1] was 76.8 nM. For the same compound, in data set [14], the Papp A→B at 2.5 h, 2 µM came to 0.43 ×10⁻⁶ cm/s. In addition, in data set [15], the efflux ratio at 2.5 h, 2 µM came to 1.46.

Turning to `Cc1cccc(-c2nn3c(c2-c2ccc4ncnn4c2/C=C/C(=O)NC2CC2)CCC3)n1`, the results for the IC50 in [1] and in [2] were 279 nM and 5210 nM, respectively. Further, the Ratio IC50 in data set [3] is 18.6.

In the case of `Cc1cccc(-c2nn3c(c2-c2ccc4ncnn4c2CCC(N)=O)CCC3)n1`, the IC50 in data set [1] is 928 nM.

In the case of `Cc1cccc(-c2nn3c(c2-c2ccc4nccn4c2/C=C/C(N)=O)CCC3)n1`, the half-maximal inhibitory concentration (IC50) in data set [1] worked out at 1020 nM.

With `Cc1nc(-c2nn3c(c2-c2ccc4ncnn4c2/C=C/C(N)=O)CCC3)ccc1Cl`, the IC50 in [1] amounted to 4890 nM.

In the case of `Cc1cccc(-c2nn(C)c(C)c2-c2ccc3ncnn3c2/C=C/C(N)=O)n1`, the results for the IC50 in data set [1] and in [2] were 253 nM and more than 10000 nM, respectively. Besides, in data set [3], the Ratio IC50 was more than 40.

`CCNC(=O)/C=C/c1c(-c2c(-c3cccc(C)n3)nn3c2CCC3)ccc2ncnn12`: the IC50 in [1] came to 312 nM; in data set [2] it was 4750 nM. The Ratio IC50 in data set [3] was 15.2.

As to `Cc1cccc(-c2nn3c(c2-c2ccnc4ccc(C(N)=O)cc24)CCC3)n1` [GALUNISERTIB], in data set [2], the IC50 is 783 nM.

For `CNC(=O)/C=C/c1c(-c2c(-c3cccc(C)n3)nn3c2CCC3)ccc2ncnn12`, the IC50 is 248 nM in [1] and more than 3330 nM in data set [2]. Also, the Ratio IC50 in data set [3] was more than 13.

For the compound `Cc1cccc(-c2nn(C3CCCC3)cc2-c2ccc3ncnn3c2/C=C/C(N)=O)n1`, the IC50 in data set [1] turned out to be 276 nM.

Consider `Cc1cc(C)nc(-c2nn3c(c2-c2ccc4ncnn4c2/C=C/C(N)=O)CCC3)c1`, for which, in data set [1], the IC50 was 3240 nM.
